{"source": "patent US11325937B2", "about": "“Glycoside compound and preparation method therefor, composition, application, and intermediate” (SHANGHAI HUTCHISON PHARMACEUTICALS LIMITED, priority 2018, dated 2022)", "key": {"[1]": {"test_system": "rats with permanent ligation of bilateral common carotid arteries (2VO)", "test": "Chronic cerebral ischemia model in rats with permanent ligation of bilateral common carotid arteries (2VO)", "type": "in vivo", "text": "After obtaining the active molecules that can promote the expression of VEGF-A mRNA in the animal model of inflammatory angiogenesis, a rat model of cerebral infarction was used for further verification. Following the method as described in Longa, E. Z., Longa, E. Z., Weinstein, P. R., Carlson, S. & Commin, R. Reversible middle cerebral artery occlusion without craniectomy in rats. [J]. Stroke, 1989. 1: 84-91, an acute cerebral infarction model was established in rats with middle cerebral artery occlusion (MCAO); and following the method as described in C. dela Torre, T. Fortin, G. A. S. Park, K. S. Butler, P. Kozlowski, B. A. Pappas, H. de Socarraz, J. K. Saunders and M. T. Richard. [J]. Brain Research, 1992. 582:186-195, a chronic cerebral ischemia model was established in rats with permanent ligation of bilateral common carotid arteries (2VO). The inhibition on cerebral infarction and neuroprotection for brain injury of the active molecules screened in Effect Example 2 were verified.\nIn the later period of the present invention, a chronic cerebral ischemia model was established in rats with permanent ligation of bilateral common carotid arteries (2VO). TG-028 (5 mg/kg) was administered to 5 rats in each group daily by intraperitoneal injection for 3 weeks. The effects of TG-028 and the control drug Edaravone (40 mg/kg) in the rat model of chronic cerebral ischemia were observed.\n3 weeks after the establishment of the rat model of 2VO chronic cerebral ischemia, the Morris water maze experiment was performed on the test rats to determine the effects of drugs on animal learning and memory. The test rats were subjected to ambient positioning and memory training for 5 days. On Day 5 of the training, a positioning navigation experiment was carried out, and the duration for each group of rats from the time of entering the water from different water entry points facing the pool wall to the time of finding the platform, that is, the escape incubation period, was recorded. On Day 6, the platform was removed and a space exploration experiment was carried out. The swimming time of the rats in the target quadrant, the dwell time in the target quadrant, the distance in the target quadrant, and the number of passes through the platform were recorded in 120 s from the time of entering water from a quadrant opposing the target quadrant. The results of the water maze positioning and navigation experiment are shown in FIG. 8 (where Sham is a sham operation group).\nAfter permanent ligation of the bilateral common carotid arteries, a 5-day positioning training was carried out, and […] Morris water maze space exploration experiment was performed after the training."}, "[2]": {"test_system": "HUVEC-12 endothelial cells", "test": "Migration of HUVEC-12 endothelial cells (scratch test)", "type": "cell-based, Human", "protocol": "The experiment included seven groups. In Group 1, HUVEC-12 endothelial cells (purchased from Shanghai RongChuang Biotech Co., Ltd.) were treated directly with simple DMEM medium (Gibcol, Shanghai) containing 10% FBS (SERANA, Germany) (control). In Group 2, the endothelial cells were treated with the supernatant obtained 24 h after macrophages were cultured with DMEM medium containing 10% FBS (s-control). In Group 3, the endothelial cells cultured with DMEM medium containing 10% FBS were treated directly with TG-028 (TG-028, 10 μM). In Group 4, the endothelial cells were treated with the supernatant obtained after macrophages cultured with DMEM medium containing 10% FBS were treated and co-incubated with TG-028 for 24 h (s-TG-028, […]). In Group 5, the endothelial cells cultured with DMEM medium containing 10% FBS were treated directly with Cpd-18 (Salvianolate) (cpd-18, 10 μM). In Group 6, the endothelial cells were treated with the supernatant obtained after macrophages cultured with DMEM medium containing 10% FBS were treated and co-incubated with Cpd-18 (Salvianolate, 10 μM) for 24 h (s-cpd18). In Group 7, the endothelial cells cultured with DMEM medium containing 10% FBS were treated directly with VEGFD (Recombinant Human VEGF165, 10 ng/mL).\nHuman umbilical vein endothelial cells HUVEC-12 in logarithmic growth phase were counted, adjusted to a cell density of 5×10^5 cells/mL, and inoculated in 1 mL per well in a 6-well plate. The cells were conventionally cultured in an incubator to form monolayer cells of 90% confluency. The 6-well plate fully plated with cells was scratched perpendicular to the cell surface with a 200 μL pipette tip from one end to the other end of the well. The scratches were made transversely with the pipette tip being as perpendicular as possible to the bottom of the plate. […]\nThe medium was aspirated and the cells scratched off were washed off with PBS. […] The migration of endothelial cells was detected according to the cell scratch method and the relative migration rate was calculated. […]"}}, "data": [{"smiles": "COc1ccc(CCCCO[C@@H]2O[C@H](CO)[C@@H](O)[C@H](O)[C@H]2O)cc1", "note": "[TG-028]", "values": [{"measurement": "HE staining and Nissl staining of brain sections, hippocampal CA3 neurons (in words)", "setting": "[1]; 3 weeks after chronic cerebral ischemia, compared with 2VO+NaCl, FIG. 10", "result": "neatly and densely arranged"}, {"measurement": "Morris water maze positioning and navigation: escape incubation period and total distance (in words)", "setting": "[1]; TG-028 5 mg/kg, Edaravone 40 mg/kg, 3 weeks of administration, FIG. 8", "result": "comparable effect"}, {"measurement": "Morris water maze space exploration: number of passes through the platform compared with 2VO+NaCl group", "setting": "[1]; TG-028 5 mg/kg, Edaravone 40 mg/kg, 3 weeks, FIG. 9", "result": "increases significantly"}, {"measurement": "change in body weight compared with sham operation group (in words)", "setting": "[1]; TG-028 5 mg/kg, Edaravone 40 mg/kg, i.p. daily, after 1 week, FIG. 7", "result": "no difference in weight change between the treatment group with TG-028 and the sham operation group"}, {"measurement": "effect on migration of endothelial cells (in words)", "setting": "[2]; HUVEC-12 treated with supernatant of macrophages co-incubated 24 h with compound, 10 μM (s- groups)", "result": "comparable effect on the migration of endothelial cells as VEGF"}, {"measurement": "effect on migration of endothelial cells (in words)", "setting": "[2]; direct treatment of HUVEC-12, 24 h, compounds 10 μM, VEGF165 10 ng/mL, vs control medium", "result": "significant effect on the migration of endothelial cells"}]}]}
